In patent US6949573B2, “Nicotinamide derivatives useful as PDE4 inhibitors” (Pfizer Inc, priority 2002, dated 2005):

System: human peripheral blood mononuclear cells
Test: Inhibition of LPS-stimulated TNFα release from human peripheral blood mononuclear cells (TNFα screen)
Type: cell-based
Conditions: LPS-stimulated human PBMC, 18 hours incubation, TNFα in supernatant by ELISA
Procedure: Venous blood Is collected from healthy volunteers and the mononuclear cells purified by centrifugation through Histopaque (ficoll) cushions. TNFα production from these cells is stimulated by addition of lipopolysaccharide. After 18 hours incubation in the presence of LPS, the cell supernatant is removed and the concentration of TNFα in the supernatant determined by ELISA. Addition of PDE4 inhibitors reduces the amount of TNFα produced. An IC50 is determined which is equal to the concentration of compound that gives 50% inhibition of TNFα production as compared to the LPS stimulated control wells.

For COC(=O)CCC(=O)NC1CCC(NC(=O)c2cc(F)cnc2Oc2ccc(F)cc2)CC1 (stereo not drawn) [Example 110, Syn-N-(4-{[5-fluoro-2-(4-fluoro-phenoxy)-pyridine-3-carbonyl]-amino}-cyclo-hexyl)-succinamic acid methyl ester], the IC50 was 0.014 µM.
